Data reported in patent US9593305B2, “Differentiation of pluripotent stem cells” (Janssen Biotech, Inc., priority 2008, dated 2017).
Where two headings read alike, the source gives them in different places.

Tested on: H1 human embryonic stem cells
Assay: Secondary assay: compound combined with individual growth factors or small molecules, no activin A (Example 5, Table 4)
Assay type: cell-based
Conditions: for increase in SOX17 expression (% of the activin A/Wnt3a control): growth factor 50 ng/ml combined with 2.5 μM compound and Wnt3a
Description: Clusters of H1 human embryonic stem cells were grown on reduced growth factor […]™ (Invitrogen; Cat #356231)-coated tissue culture plastic. Cells were passaged using collagenase (Invitrogen; Cat #Cat #17104-019) treatment and gentle scraping, washed to remove residual enzyme, and plated with even dispersal at a ratio of 1:1 (surface area) on reduced growth factor […]™-coated 96-well black plates (Packard ViewPlates; PerkinElmer; Cat #6005182) using volumes of 100 μl/well. Cells were allowed to attach as clusters and then recover log phase growth over a 1 to 3 day period, feeding daily with MEF conditioned medium supplemented with 8 ng/ml bFGF (R&D Systems; Cat #233-FB). Plates were maintained at 37° C., 5% CO2 in a humidified box throughout the duration of assay.
Other agents tested were purchased as follows: BMP-7 (Sigma; Cat #B1434), LY294002 (Cayman; Cat 70920), PD98059, U0126, U0124 (EMD Biosciences; Cat #453710), muscimol (Tocris; Cat #0289), biuculline (Tocris; Cat #0130), sodium butyrate (Sigma; Cat #B5887). All growth factors were solubilized in PBS with 0.1% BSA (Sigma; Cat #A7888) and stored frozen at −80° C. Small molecules were solubilized in 100% DMSO (Sigma; Cat #D2650) and stored frozen at −80° C. The compounds were available as 5 mM stocks in 96-well plate format, solubilized in 100% DMSO and stored at −80° C. The compounds of the present invention were further diluted to an intermediate concentration of 0.2 mM in 50 mM HEPES (Invitrogen; Cat #15630-080), 20% DMSO and stored at 4° C. All growth factors and inhibitors were prepared in a deep well, 96-well polypropylene plate, diluted to 5× intermediate stocks in DMEM:F12 base medium at the beginning of assay and stored at 4° C.
A secondary screening assay was conducted, testing in triplicate and feeding on alternate days over the four-day assay timeframe. Assays were initiated by aspirating culture medium from each well followed by three washes in PBS to remove residual growth factors and serum. Test volumes of 80 μl per well were added back containing DMEM:F12 base medium (Invitrogen; Cat #11330-032) supplemented with 0.625% FCS (HyClone; Cat #SH30070.03), 25 ng/ml Wnt3a (R&D Systems), and 3.125 μM compound plus 20 μl 5× stock of growth factor or small molecule to yield a final concentration of 0.5% FCS, 20 ng/ml Wnt3a, and 2.5 μM compound. […] Final assay concentrations of small molecules tested were as follows: muscimol (20 μM), PD98059 (1 μM), LY294002 (2.5 μM), 00124 (1 μM), U0126 (1 μM), sodium butyrate (0.5 mM). Positive control wells (100 μl/well) contained the same base medium supplemented with 0.5% FCS, 20 ng/ml Wnt3a and 100 ng/ml activin A. Negative control wells (100 μl/well) contained the same base medium with 0.5% FCS and 20 ng/ml Wnt3a, omitting activin A.
On day 3, wells were aspirated and fed with 80 μl DMEM:F12 base medium supplemented with 2.5% FCS (HyClone) and 3.125 μM cyclic aniline-pyridinotriazine compound plus 20 μl 5× stock of growth factors or small molecules per well to yield a final concentration of 2% FCS and 2.5 μM compound (omitting Wnt3a) and as denoted on day one for all remaining growth factors or small molecules. Positive control wells (100 μl/well) contained the same base medium supplemented with 2% FCS and 100 ng/ml activin A, omitting Wnt3a. Negative control wells (100 μl/well) contained the same base medium with 2% FCS, omitting both activin A and Wnt3a.
At the conclusion of four-days of culture, assay plates were washed twice with PBS, fixed with 4% paraformaldehyde (Alexis Biochemical; Cat #ALX-350-011) at room temperature for 20 minutes, then washed three times with PBS and permeabilized with 0.5% Triton X-100 (Sigma; Cat #T8760-2) for 20 minutes at room temperature. Cells were washed again three times with PBS and blocked with 4% chicken serum (Invitrogen; Cat #16110082) in PBS for 30 minutes at room temperature.

[1] = agent combined with 2.5 μM compound and Wnt3a, no activin A

Molecule	effect on SOX17 expression [1]	further results
CS/C(N)=C(C#N)/C(C#N)=C(\N)SC [Compound U0124, U0124, reference compound]	inhibited or had negligible effects on SOX17 expression	–
N#CC(=C(/N)Sc1ccccc1N)/C(C#N)=C(\N)Sc1ccccc1N [Compound U0126, U0126, reference compound]	–	effect on SOX17 expression: inhibited or had negligible effects on SOX17 expression
COc1cccc(-c2cc(=O)c3ccccc3o2)c1N [PD98059, reference compound]	inhibited or had negligible effects on SOX17 expression	–
NCc1cc(=O)[nH]o1 [muscimol, reference compound]	modest increase in SOX17 expression	–
CCCC(=O)[O-].[Na+] [sodium butyrate, reference compound]	inhibited or had negligible effects on SOX17 expression	–
VEGF	–	increase in SOX17 expression (% of the activin A/Wnt3a control) (no activin A): 18%
FGF4: growth factor purchased from R&D Systems (protein, UniProt P08620 31-206, looked up) Fibroblast growth factor 4: APTAPNGTLEAELERRWESLVALSLARLPVAAQPKEAAVQSGAGDYLLGIKRLRRLYCNVGIGFHLQALPDGRIGGAHADTRDSLLELSPVERGVVSIFGVASRFFVAMSSKGKLYGSPFFTDECTFKEILLPNNYNAYESYKYPGMFIALSKNGKTKKGNRVSPTMKVTHFLPRL	–	retention of cell numbers (50 ng/ml combined with 2.5 μM compound and Wnt3a, no activin A): not able to support retention of cell numbers; increase in SOX17 expression (% of the activin A/Wnt3a control) (no activin A): 17%
BMP-6: member of the BMP family, R&D Systems (protein, UniProt P22004 375-513, looked up) Bone morphogenetic protein 6: SASSRRRQQSRNRSTQSQDVARVSSASDYNSSELKTACRKHELYVSFQDLGWQDWIIAPKGYAANYCDGECSFPLNAHMNATNHAIVQTLVHLMNPEYVPKPCCAPTKLNAISVLYFDDNSNVILKKYRNMVVRACGCH	inhibited or had negligible effects on SOX17 expression	–
BMP-7: member of the BMP family (protein, UniProt P18075 293-431, looked up) Bone morphogenetic protein 7: STGSKQRSQNRSKTPKNQEALRMANVAENSSSDQRQACKKHELYVSFRDLGWQDWIIAPEGYAAYYCEGECAFPLNSYMNATNHAIVQTLVHFINPETVPKPCCAPTQLNAISVLYFDDSSNVILKKYRNMVVRACGCH	inhibited or had negligible effects on SOX17 expression	–
BMP-1: member of the BMP family, R&D Systems (protein, UniProt P13497 121-986, looked up) Bone morphogenetic protein 1: AATSRPERVWPDGVIPFVIGGNFTGSQRAVFRQAMRHWEKHTCVTFLERTDEDSYIVFTYRPCGCCSYVGRRGGGPQAISIGKNCDKFGIVVHELGHVVGFWHEHTRPDRDRHVSIVRENIQPGQEYNFLKMEPQEVESLGETYDFDSIMHYARNTFSRGIFLDTIVPKYEVNGVKPPIGQRTRLSKGDIAQARKLYKCPACGETLQDSTGNFSSPEYPNGYSAHMHCVWRISVTPGEKIILNFTSLDLYRSRLCWYDYVEVRDGFWRKAPLRGRFCGSKLPEPIVSTDSRLWVEFRSSSNWVGKGFFAVYEAICGGDVKKDYGHIQSPNYPDDYRPSKVCIWRIQVSEGFHVGLTFQSFEIERHDSCAYDYLEVRDGHSESSTLIGRYCGYEKPDDIKSTSSRLWLKFVSDGSINKAGFAVNFFKEVDECSRPNRGGCEQRCLNTLGSYKCSCDPGYELAPDKRRCEAACGGFLTKLNGSITSPGWPKEYPPNKNCIWQLVAPTQYRISLQFDFFETEGNDVCKYDFVEVRSGLTADSKLHGKFCGSEKPEVITSQYNNMRVEFKSDNTVSKKGFKAHFFSDKDECSKDNGGCQQDCVNTFGSYECQCRSGFVLHDNKHDCKEAGCDHKVTSTSGTITSPNWPDKYPSKKECTWAISSTPGHRVKLTFMEMDIESQPECAYDHLEVFDGRDAKAPVLGRFCGSKKPEPVLATGSRMFLRFYSDNSVQRKGFQASHATECGGQVRADVKTKDLYSHAQFGDNNYPGGVDCEWVIVAEEGYGVELVFQTFEVEEETDCGYDYMELFDGYDSTAPRLGRYCGSGPPEEVYSAGDSVLVKFHSDDTITKKGFHLRYTSTKFQDTLHSRK	inhibited or had negligible effects on SOX17 expression	–
